The subject of data set [1] is Human immunodeficiency virus 1. The experiment in a line: Antiviral activity against HIV1 expressing reverse transcriptase K103N mutant infected in human MT4 cells assessed as protection against virus-induced cytopathic effect after 5 days by MTT assay. Type of data set: functional, cell-based. The note with it: Human immunodeficiency virus 1, MT4, 120 h. (Cytopathic effects are the visible damage that an infection or toxin causes in cultured cells.)

Data set [2] has as its system Human immunodeficiency virus 1. It counts as functional, cell-based. The note with it: Human immunodeficiency virus 1, MT4, 120 h.
Data set [3] deals with Human immunodeficiency virus 1. It counts as functional, cell-based. The note with it: Human immunodeficiency virus 1, MT4, 120 h. The source holds these as a separate data set.
The subject of data set [4] is Human immunodeficiency virus 1. Description: Antiviral activity against HIV1 expressing reverse transcriptase E138K mutant infected in human MT4 cells assessed as protection against virus-induced cytopathic effect after 5 days by MTT assay. The note with it: Human immunodeficiency virus 1, MT4, 120 h. It counts as functional, cell-based.
For data set [5], the system named is Human immunodeficiency virus 1. Type of data set: functional, cell-based. The note with it: Human immunodeficiency virus 1, MT4, 120 h. This is another data set of the same source.
Data set [6] relates to Human immunodeficiency virus 1. Description: Antiviral activity against HIV1 RES056 expressing reverse transcriptase mutant infected in human MT4 cells assessed as protection against virus-induced cytopathic effect after 5 days by MTT assay. The note with it: Human immunodeficiency virus 1, RES056, MT4, 120 h. Type of data set: functional, cell-based.
A short description of data set [7]: Cytotoxicity against human MT4 cells assessed as decrease in cell viability after 5 days by MTT assay. It counts as cell-based. For orientation: Formazan colour is commonly taken as a measure of viable cells.
Data set [8] can be described thus: in vitro. The note with it: human, MT4 cells.
Description: Selectivity index, ratio of CC50 for human MT4 cells to EC50 for HIV1 3B expressing wild type reverse transcriptase
Data set [9] is described as follows: in vitro. The note with it: human, MT4 cells. This is another data set of the same source.
Description: Selectivity index, ratio of CC50 for human MT4 cells to EC50 for HIV1 expressing reverse transcriptase L100I mutant
A short description of data set [10]: in vitro. The note with it: human, MT4 cells. This is another data set of the same source.
Description: Selectivity index, ratio of CC50 for human MT4 cells to EC50 for HIV1 expressing reverse transcriptase K103N mutant
The nature of data set [11]: in vitro. The note with it: human, MT4 cells. The source holds these as a separate data set.
Description: Selectivity index, ratio of CC50 for human MT4 cells to EC50 for HIV1 expressing reverse transcriptase Y181C mutant
The nature of data set [12]: in vitro. The note with it: human, MT4 cells. The source holds these as a separate data set.
Description: Selectivity index, ratio of CC50 for human MT4 cells to EC50 for HIV1 expressing reverse transcriptase Y188L mutant
The nature of data set [13]: in vitro. The note with it: human, MT4 cells. The source holds these as a separate data set.
Description: Selectivity index, ratio of CC50 for human MT4 cells to EC50 for HIV1 expressing reverse transcriptase E138K mutant
The nature of data set [14]: in vitro. The note with it: human, MT4 cells. This is another data set of the same source.
Description: Selectivity index, ratio of CC50 for human MT4 cells to EC50 for HIV1 expressing reverse transcriptase F227L/V106A double mutant
The subject of data set [15] is Human immunodeficiency virus 1. Description: microbe, parasite or virus in culture. The note with it: Human immunodeficiency virus 1, 3B, MT4, 120 h.
Description: Antiviral activity against HIV1 3B expressing wild type reverse transcriptase infected in human MT4 cells assessed as protection against virus-induced cytopathic effect after 5 days by MTT assay
For data set [16], the system named is Human immunodeficiency virus 1. The experiment in a line: microbe, parasite or virus in culture. The note with it: Human immunodeficiency virus 1, MT4, 120 h.
Description: Antiviral activity against HIV1 expressing reverse transcriptase L100I mutant infected in human MT4 cells assessed as protection against virus-induced cytopathic effect after 5 days by MTT assay
A short description of data set [17]: Inhibition of recombinant wild type HIV1 reverse transcriptase using poly (A).oligo (dT)15 as template/primer assessed as decrease in biotin-dUTP incorporation after 1 hr by ELISA. Further details: species or system Human immunodeficiency virus 1. On the technique in general: An ELISA detects its analyte on a solid surface through an enzyme-linked reagent.
The subject of data set [18] is Human immunodeficiency virus 2. The experiment in a line: Antiviral activity against HIV2 ROD infected in human MT4 cells assessed as protection against virus-induced cytopathic effect after 5 days by MTT assay. Type of data set: functional, cell-based. The note with it: ISOLATE ROD.
A short description of data set [19]: in vitro. The note with it: human, MT4 cells. This is another data set of the same source.
Description: Selectivity index, ratio of CC50 for human MT4 cells to EC50 for HIV1 RES056 expressing reverse transcriptase mutant
The test system of data set [20] is Human immunodeficiency virus 1. Description: Potency index, ratio of nevirapine EC50 to test compound EC50 for HIV1 3B expressing wild type reverse transcriptase. It counts as functional.
The test system of data set [21] is Human immunodeficiency virus 1. Description: Potency index, ratio of delavirdine EC50 to test compound EC50 for HIV1 3B expressing wild type reverse transcriptase. It counts as functional.
Data set [22] relates to Human immunodeficiency virus 1. Description: Resistance ratio of EC50 for HIV1 expressing reverse transcriptase L100I mutant to EC50 for HIV1 3B expressing wild type reverse transcriptase. It counts as functional.
The test system of data set [23] is Human immunodeficiency virus 1. Description: Resistance ratio of EC50 for HIV1 expressing reverse transcriptase K103N mutant to EC50 for HIV1 3B expressing wild type reverse transcriptase. It counts as functional.

The structures appear in SMILES notation. Active and inactive are the calls of the source. The rule behind the calls is not given here.

As usually defined, the EC50 is the midpoint of the concentration-response curve. In general, CC50 refers to the concentration at which the toxic effect on the cells reaches its halfway point. For orientation: IC50 means the concentration at which inhibition is half-maximal.

As to `CC(C)Nc1cccnc1N1CCN(C(=O)c2cc3cc(NS(C)(=O)=O)ccc3[nH]2)CC1` [DELAVIRDINE], the EC50 in [1] is 2500 nM; in data set [2], 1900 nM; in data set [3] it was 550 nM; in [4], 70 nM; in data set [5], 2600 nM; in data set [6], at least 37000 nM. The figures for the EC50 in data set [15] and in data set [16] were 24 nM and 3500 nM, respectively. For the same compound, the CC50 at 120 h in data set [7] is over 43800 nM. Besides, the selectivity ratio was 1880 in [8]; 13 in data set [9]; 18 in data set [10]; 23 in data set [11]; 81 in [12]; 634 in data set [13]. The selectivity ratio in data set [14] was found to be 17.

For `Cc1ccnc2c1NC(=O)c1cccnc1N2C1CC1` [NEVIRAPINE], the EC50 in [1] turned out to be 3600 nM; in data set [2] it was 3800 nM; in data set [3], 4400 nM; in data set [4], 160 nM; in data set [5], 3500 nM; in data set [6], 2200 nM. In addition, the CC50 at 120 h in data set [7] is over 15000 nM. Also, the IC50 in [17] amounted to 2800 nM.

On to `Cc1cc(C#N)cc(C)c1Oc1nc(Nc2ccc(C#N)cc2)nc(N)c1Br` [ETRAVIRINE], for which the EC50 in data set [2] was 14 nM; in data set [3], 15 nM; in data set [4], 11 nM; in [6], 34 nM; in data set [16], 9 nM. The IC50 in [17] was 1100 nM.

Consider `O=C1Nc2ccc(Cl)cc2[C@@](C#CC2CC2)(C(F)(F)F)O1` [EFAVIRENZ], for which the EC50 was 98 nM in data set [1]; 5 nM in data set [2]; 92 nM in data set [3]; 76 nM in data set [5]; 110 nM in [6]. The CC50 at 120 h in data set [7] was over 6300 nM.

For the compound `CCOC(=O)CCN1CCC(CNC(=O)c2[nH]c3ccc(Cl)cc3c2S(=O)(=O)c2cc(C)cc(C)c2)CC1`, in data set [7], the CC50 at 120 h was determined as 19200 nM. Moreover, the 50% inhibitory concentration (IC50) in [17] amounted to 10100 nM.

In the case of `Cc1cc(C)cc(S(=O)(=O)c2c(C(=O)NCC3CCN(CCO)CC3)[nH]c3ccc(Cl)cc23)c1`, the EC50 in data set [1] was 320 nM; in data set [2], 560 nM; in [3] it was over 6700 nM; in [4], 300 nM; in data set [5], 620 nM; in [6] it was over 6700 nM. The concentration giving a half-maximal response (EC50) in data set [15] came out at 32 nM; in data set [16] it was 110 nM. The CC50 at 120 h in [7] came to 6700 nM. The result in data set [18] was inactive. In addition, the selectivity ratio in data set [8] was 205; in data set [9] it was 59; in [10], 21; in [11], 12; in [12], under 1; in [13] it was 22. Also, the selectivity ratio is 11 in data set [14] and under 1 in data set [19].

Turning to `Cc1cc(C)cc(S(=O)(=O)c2c(C(=O)NC3CCN(CCO)CC3)[nH]c3ccc(Br)cc23)c1`, the concentration for a half-maximal effect (EC50) is 84 nM in [1]; 130 nM in data set [2]; over 6300 nM in data set [3]; 140 nM in [4]; 220 nM in data set [5]; over 6300 nM in [6]. The results for the EC50 in [15] and in [16] were 6 nM and 17 nM, respectively. The CC50 at 120 h in data set [7] amounted to 6300 nM. For the same compound, the “Ratio EC50” value was 20 in [20], 4 in [21], 2.8 in data set [22] and 14 in data set [23]. Also, the result in [18] was inactive. Besides, the selectivity ratio in data set [8] was 1000; in data set [9], 368; in data set [10] it was 74; in data set [11], 48; in [12], under 1; in data set [13], 46. Further, the selectivity ratio is 28 in [14] and under 1 in [19].

Values taken from ChEMBL document CHEMBL4002552, “Discovery of novel piperidine-substituted indolylarylsulfones as potent HIV NNRTIs via structure-guided scaffold morphing and fragment rearrangement” (Eur J Med Chem, 2017).
